Source: patent US7259188B2, “Methods and pharmaceutical compositions for treatment of anti-estrogen resistant breast cancer using RXR modulators” (priority 1998, dated 2007)
Read-outs that look alike come from different tables or passages of the source.

Experiments:
RXRβ = target: T1, RXRβ (UniProt P28704); format: cell-based
T1 sequence (P28704 1-520): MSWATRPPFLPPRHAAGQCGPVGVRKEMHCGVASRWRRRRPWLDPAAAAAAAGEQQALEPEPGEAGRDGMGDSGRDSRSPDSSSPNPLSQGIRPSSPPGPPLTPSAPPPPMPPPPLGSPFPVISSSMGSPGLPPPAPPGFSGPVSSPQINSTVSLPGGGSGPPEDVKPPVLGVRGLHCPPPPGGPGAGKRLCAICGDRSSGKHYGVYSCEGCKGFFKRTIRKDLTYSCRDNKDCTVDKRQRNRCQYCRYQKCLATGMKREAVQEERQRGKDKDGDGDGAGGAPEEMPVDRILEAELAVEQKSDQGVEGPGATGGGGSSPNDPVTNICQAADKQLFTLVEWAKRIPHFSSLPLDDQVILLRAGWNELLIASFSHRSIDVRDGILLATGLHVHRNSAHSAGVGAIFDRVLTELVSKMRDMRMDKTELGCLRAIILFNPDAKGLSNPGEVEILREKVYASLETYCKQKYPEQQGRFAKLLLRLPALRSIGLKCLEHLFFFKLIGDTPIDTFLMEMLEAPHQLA
Description: Briefly, the co-transfection assay involves the introduction of two plasmids by transient transfection into a retinoid receptor-negative mammalian cell background. The first plasmid contains a retinoid receptor cDNA and directs constitutive expression of the encoded receptor. The second plasmid contains a cDNA that encodes for a readily quantifiable protein, e.g., firefly luciferase or chloramphenicol acetyl transferase (CAT), under control of a promoter containing a retinoid acid response element, which confers retinoid dependence on the transcription of the reporter. […] This assay can be used to accurately measure efficacy and potency of retinoic acid and synthetic retinoids as ligands that interact with the individual retinoid receptor subtypes.

[1] = tested on: tumors that grew in the presence of the low-dose tamoxifen; assay: Example 2: NMU-induced tumors that grew in the presence of low-dose tamoxifen; conditions: LGD1069 100 mg/kg PO added to low-dose tamoxifen therapy, compared to treatment with tamoxifen (800 μg/kg SC)
primary mammary tumors = assay: Example 4: NMU-induced mammary tumors, submaximally efficacious doses alone and coadministered; format: in vivo, Sprague-Dawley rats; conditions: for primary mammary tumors regressed: single agent at submaximally efficacious dose: LGD1069 10 mg/kg, tamoxifen 150 mg/kg
Description: (§1) Mammary tumorigenesis was induced by administration of 50 mg/kg of N-nitroso-N-methylurea (NMU) (Sigma, St. Louis, Mo.) to 50 day old virgin female Sprague-Dawley rats (Harlan-SD, Indianapolis, Ind.). […] Fresh solutions of NMU were injected within 30 minutes of preparation. The animals were injected in the tail vein with 5 mg NMU/100 g body weight. Rats were housed in a USDA registered facility in accordance with NIH guidelines for the care and use of laboratory animals. […] Beginning five weeks after tumor induction, animals were examined for tumors twice a week. Tumors were measured with electronic calipers (Mitushoyo, Japan) and cross sectional areas were determined by multiplying the longest length of the tumor by the greatest perpendicular width of the tumor.

[2] = tested on: mammary carcinoma development; conditions: NMU-treated rat, compared with tamoxifen; cited from earlier work
[3] = tested on: established mammary tumors; assay: Example 3: established NMU-induced mammary tumors, six weeks of treatment; format: in vivo, Sprague-Dawley rats; conditions: for tumors completely regressed / tumors continued to progress / tumors partially regressed: LGD1069 100 mg/kg or tamoxifen 800 μg/kg
Description: Mammary tumorigenesis was induced by administration of 50 mg/kg of N-nitroso-N-methylurea (NMU) (Sigma, St. Louis, Mo.) to 50 day old virgin female Sprague-Dawley rats (Harlan-SD, Indianapolis, Ind.). NMU was formulated as an aqueous solution of 10 mg/ml by wetting NMU powder with 3% acetic acid and dissolving it in sterile saline. Fresh solutions of NMU were injected within 30 minutes of preparation. The animals were injected in the tail vein with 5 mg NMU/100 g body weight. Rats were housed in a USDA registered facility in accordance with NIH guidelines for the care and use of laboratory animals. […] Beginning five weeks after tumor induction, animals were examined for tumors twice a week. Tumors were measured with electronic calipers (Mitushoyo, Japan) and cross sectional areas were determined by multiplying the longest length of the tumor by the greatest perpendicular width of the tumor.

[4] = tested on: tamoxifen-resistant primary tumors; assay: Example 1: tumor response of tamoxifen-resistant NMU-induced mammary tumors; format: in vivo, Sprague-Dawley rats; conditions: additional six weeks; for combined response of partial or complete regression / incidence of progressive disease / complete regression of tumors: LGD1069 100 mg/kg orally daily added to tamoxifen 800 μg/kg sc daily, versus tamoxifen alone; for complete regression of tumors: p<0.05
Description: as §1

[5] = tested on: estrogen receptor positive breast cancers; conditions: patients, tamoxifen treatment; cited from earlier work

SMILES	Efficacy (RXRβ; RXRβ, co-transfection assay) [%]	Efficacy (RXRβ) [%]	EC50 (RXRβ; read-out: Potency) [nM]	amount of progressive disease [1]	tumors completely regressing (primary mammary tumors; LGD1069 10 mg/kg coadministered with tamoxifen 150 mg/kg) [%]	primary mammary tumors regressed (primary mammary tumors) [%]	inhibiting mammary carcinoma development (chemopreventive) [2]	antitumor efficacy on established mammary tumors ([3]; LGD1069 100 mg/kg daily for six weeks, compared with tamoxifen 800 μg/kg)	tumors completely regressed ([3]; daily for six weeks) [%]	tumors continued to progress ([3]; daily for six weeks) [%]	tumors partially regressed ([3]; daily for six weeks) [%]	combined response of partial or complete regression [4]	incidence of progressive disease [4] [%]	complete regression of tumors [4] [%]	incidence of stable disease ([4]; LGD1069 100 mg/kg orally daily added to tamoxifen, compared with tamoxifen alone)	estrogen receptor positive breast cancers that respond to treatment [5]	tumors remained static ([3]; daily for six weeks, tamoxifen 800 μg/kg) [%]
CC1=C(/C=C/C(C)=C\C=C\C(C)=C\C(=O)O)C(C)(C)CCC1 [9-cis-retinoic acid, reference compound]	140	–	–	–	–	–	–	–	–	–	–	–	–	–	–	–	–
Cc1cc2c(cc1/C(=N/O)c1ccc(C(=O)O)cc1)C(C)(C)CCC2(C)C [LDG100324]	–	51	8	–	–	–	–	–	–	–	–	–	–	–	–	–	–
C=C(c1ccc(C(=O)O)cc1)c1cc2c(cc1C)C(C)(C)CCC2(C)C [LGD1069]	–	–	–	significantly reduced the amount of progressive disease	26.3	10.5	as effective as the anti-estrogen tamoxifen	greater efficacy than treatment with tamoxifen	72.2	11.1	16.7	more than 90%	3	56	reduced the incidence	–	–
CC/C(=C(\c1ccccc1)c1ccc(OCCN(C)C)cc1)c1ccccc1 [tamoxifen, reference compound]	–	–	–	–	–	5.6	–	–	33.3	28.6	33.3	44%	44	16.7	–	approximately 66%	4.8
